Reference: the supplement of paper PMC10307832

What was measured:
Assay in all cases: relative viability (nuclei count vs DMSO), 5 days (fraction); higher = more cells survive
Irinotecan + Luminespib = compound: CCc1c2c(nc3ccc(OC(=O)N4CCC(N5CCCCC5)CC4)cc13)-c1cc3c(c(=O)n1C2)COC(=O)[C@]3(O)CC [Irinotecan] + CCNC(=O)c1noc(-c2cc(C(C)C)c(O)cc2O)c1-c1ccc(CN2CCOCC2)cc1 [Luminespib] (partner 0.01 µM)
In short: (§1)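 Medians of duplicate plates are given as relative viability. That measure is the nuclei count in treated wells divided by the count in vehicle wells. Counts were taken on 4× images of lung cancer cell lines in 1536-well plates, 5 days after pin-tool dosing the day after seeding with one drug alone or a fixed anchor-drug dose plus five library-drug doses (not always all listed) in √10 steps.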

RU-SKI 43 + Navitoclax = compound: CC[C@@H](C)CNCC(=O)N1CCC2=C([C@@H]1COC3=CC=CC(=C3)C)C=CS2 [RU-SKI 43] + CC1(C)CCC(c2ccc(Cl)cc2)=C(CN2CCN(c3ccc(C(=O)NS(=O)(=O)c4ccc(N[C@H](CCN5CCOCC5)CSc5ccccc5)c(S(=O)(=O)C(F)(F)F)c4)cc3)CC2)C1 [Navitoclax] (partner 0.5 µM)
In short: as §1

Irinotecan + Pictilisib = compound: CCc1c2c(nc3ccc(OC(=O)N4CCC(N5CCCCC5)CC4)cc13)-c1cc3c(c(=O)n1C2)COC(=O)[C@]3(O)CC [Irinotecan] + CS(=O)(=O)N1CCN(Cc2cc3nc(-c4cccc5[nH]ncc45)nc(N4CCOCC4)c3s2)CC1 [Pictilisib] (partner 1 µM)
In short: as §1

Row | Cell Line | relative viability (Irinotecan + Luminespib; first compound 2 µM) | relative viability (Irinotecan + Luminespib; first compound 6.325 µM) | relative viability (Irinotecan + Luminespib; first compound 20 µM) | relative viability (RU-SKI 43 + Navitoclax; first compound 0.1 µM) | relative viability (RU-SKI 43 + Navitoclax; first compound 0.3162 µM) | relative viability (RU-SKI 43 + Navitoclax; first compound 1 µM) | relative viability (RU-SKI 43 + Navitoclax; first compound 3.162 µM) | relative viability (RU-SKI 43 + Navitoclax; first compound 10 µM) | relative viability (Irinotecan + Pictilisib; first compound 2 µM) | relative viability (Irinotecan + Pictilisib; first compound 6.325 µM) | relative viability (Irinotecan + Pictilisib; first compound 20 µM) | relative viability (Irinotecan + Pictilisib; first compound 0.6325 µM) | relative viability (Irinotecan + Luminespib; first compound 0.6325 µM)
1 | 201T | 0.547 | 0.313 | 0.342 | 1.2 | 1.18 | 1.21 | 1.19 | 1.18 | 0.738 | 0.36 | 0.346 |  | 
2 | A549 |  |  |  | 1.24 | 1.51 | 1.17 | 1.23 | 1.08 | 0.452 | 0.139 | 0.0724 | 0.502 | 
3 | A-427 | 0.574 | 0.306 | 0.166 | 0.944 | 0.868 | 0.997 |  | 0.961 | 0.392 | 0.19 | 0.225 |  | 
4 | ABC-1 | 0.528 | 0.352 | 0.269 |  |  |  |  |  | 0.556 | 0.424 | 0.112 |  | 
5 | BEN | 0.374 | 0.176 | 0.294 | 0.0754 | 0.0554 | 0.064 | 0.0685 | 0.0709 | 0.461 | 0.253 | 0.349 | 0.508 | 0.231
6 | CAL-12T | 0.695 | 0.2 | 0.253 | 1.2 | 1.53 | 1.54 | 1.13 | 1.14 | 0.396 | 0.443 | 0.327 | 0.4 | 
7 | COR-L23 | 0.36 | 0.223 | 0.165 | 0.971 | 0.628 | 1.11 | 1.04 | 1.07 | 0.363 | 0.228 | 0.0867 | 0.338 | 0.235
8 | COR-L 105 | 0.677 | 0.421 | 0.411 | 0.909 | 0.61 | 0.648 | 0.858 | 0.595 | 0.515 | 0.411 | 0.231 | 0.309 | 0.578
9 | Calu-6 |  |  |  | 0.848 | 0.977 | 0.72 | 0.955 | 0.691 | 0.417 | 0.219 | 0.0958 | 0.573 | 
10 | ChaGo-K-1 | 0.332 | 0.23 | 0.282 | 1.26 | 0.996 | 1.58 | 0.569 | 0.742 | 0.645 | 0.523 | 0.161 |  | 0.309
11 | EBC-1 |  |  |  | 0.358 | 0.294 | 0.401 | 0.366 | 0.223 | 0.301 | 0.315 | 0.131 | 0.29 | 
12 | EKVX | 0.667 | 0.379 | 0.154 | 0.989 | 0.893 | 0.96 | 0.982 | 0.67 | 0.421 | 0.224 | 0.163 | 0.503 | 0.81
13 | EMC-BAC-2 | 0.407 | 0.347 | 0.375 | 1.14 | 1.57 | 1.21 | 1.26 | 1.15 | 0.373 | 0.234 | 0.223 | 0.37 | 0.681
14 | EPLC-272H | 0.368 | 0.287 | 0.281 | 1.17 | 1.12 | 1.03 |  | 1.13 | 0.305 | 0.188 | 0.195 | 0.212 | 0.203
15 | H3255 | 0.707 | 0.385 | 0.448 | 0.489 | 0.396 | 0.598 | 0.5 | 0.237 | 0.272 | 0.222 | 0.23 | 0.302 | 0.435
16 | HARA | 0.29 | 0.147 | 0.111 | 1.19 | 1.14 | 1.15 | 1.16 | 1.13 | 0.104 | 0.161 | 0.0982 | 0.189 | 0.0995
17 | HCC-15 | 0.234 | 0.121 | 0.126 | 0.769 | 0.81 | 0.715 | 0.757 | 0.735 | 0.286 | 0.137 | 0.167 | 0.186 | 
18 | HCC-44 | 0.456 | 0.215 | 0.225 | 0.863 | 1.13 | 0.968 | 0.986 | 0.902 | 0.438 | 0.221 | 0.404 | 0.657 | 
19 | HCC-78 |  |  |  | 0.758 | 0.96 | 1.03 | 0.834 | 0.772 | 0.172 | 0.149 | 0.158 | 0.276 | 
20 | HCC-366 |  |  |  | 1.04 | 1.5 | 1.06 | 1.18 | 1.05 | 0.142 | 0.0733 | 0.0469 | 0.181 | 
21 | HCC-827 | 0.501 | 0.165 | 0.104 | 0.998 | 0.954 | 1.03 | 1.08 | 0.973 | 0.59 | 0.548 | 0.388 | 0.878 | 0.289
22 | HOP-62 | 0.361 | 0.203 | 0.21 | 1.22 | 1.26 | 1.21 | 1.14 | 1.06 | 0.261 | 0.13 | 0.269 | 0.239 | 0.254
23 | IA-LM |  |  |  | 0.752 | 0.751 | 0.856 | 0.738 | 0.824 | 0.234 | 0.265 | 0.116 | 0.367 | 
24 | LC-2-ad | 0.542 | 0.337 | 0.233 | 0.388 | 0.487 | 0.63 | 0.422 | 0.329 | 0.315 | 0.231 | 0.116 | 0.146 | 0.685

Row | Cell Line | relative viability (Irinotecan + Luminespib; first compound 2 µM) | relative viability (Irinotecan + Luminespib; first compound 6.325 µM) | relative viability (Irinotecan + Luminespib; first compound 20 µM) | relative viability (RU-SKI 43 + Navitoclax; first compound 0.1 µM) | relative viability (RU-SKI 43 + Navitoclax; first compound 0.3162 µM) | relative viability (RU-SKI 43 + Navitoclax; first compound 1 µM) | relative viability (RU-SKI 43 + Navitoclax; first compound 3.162 µM) | relative viability (RU-SKI 43 + Navitoclax; first compound 10 µM) | relative viability (Irinotecan + Pictilisib; first compound 2 µM) | relative viability (Irinotecan + Pictilisib; first compound 6.325 µM) | relative viability (Irinotecan + Pictilisib; first compound 20 µM) | relative viability (Irinotecan + Pictilisib; first compound 0.6325 µM) | relative viability (Irinotecan + Luminespib; first compound 0.6325 µM)
25 | LCLC-97TM1 | 0.208 | 0.148 | 0.181 | 0.197 |  | 0.336 | 0.399 | 0.396 | 0.219 | 0.167 | 0.279 | 0.12 | 0.228
26 | LCLC-103H | 0.502 | 0.348 | 0.501 |  |  |  |  |  | 0.51 | 0.331 | 0.408 | 0.406 | 0.83
27 | LK-2 | 0.224 | 0.264 | 0.327 | 0.962 | 0.883 | 0.93 | 1.07 | 0.914 | 0.58 | 0.34 | 0.294 | 0.558 | 0.162
28 | LOU-NH91 | 0.323 | 0.301 | 0.28 | 0.679 | 0.746 | 0.741 | 0.714 | 0.683 | 0.518 | 0.409 | 0.35 | 0.517 | 0.371
29 | LU99A | 0.184 | 0.206 | 0.207 | 0.779 | 0.793 | 0.87 | 0.885 | 0.835 | 0.211 | 0.206 | 0.235 | 0.206 | 0.174
30 | LXF-289 | 0.288 | 0.176 | 0.208 | 0.982 | 0.973 | 1.03 | 0.992 | 0.91 | 0.7 | 0.206 | 0.158 | 0.745 | 0.592
31 | NCI-H23 | 0.394 | 0.332 | 0.241 | 0.615 | 0.9 | 0.99 | 0.998 | 0.687 | 0.442 | 0.256 | 0.258 | 0.397 | 0.228
32 | NCI-H322M | 0.777 | 0.529 | 0.181 | 1.15 | 1.4 | 1.23 | 1.39 | 1.15 | 0.507 | 0.344 | 0.338 | 0.532 | 0.844
33 | NCI-H358 | 0.152 | 0.151 | 0.143 |  |  |  |  |  | 0.387 | 0.282 | 0.171 | 0.265 | 0.285
34 | NCI-H441 | 0.332 | 0.304 | 0.309 | 0.677 | 0.498 | 0.616 | 0.611 | 0.542 | 0.314 | 0.216 | 0.32 | 0.434 | 0.231
35 | NCI-H460 | 0.0388 | 0.0428 | 0.047 | 1.15 | 1.23 | 1.34 | 1.44 | 1.11 | 0.314 | 0.0912 | 0.0812 | 0.328 | 0.019
36 | NCI-H520 | 0.257 | 0.256 | 0.303 | 1.08 | 1.42 | 1.28 | 1.08 | 1.03 | 0.324 | 0.201 | 0.152 | 0.225 | 0.249
37 | NCI-H522 | 0.645 | 0.468 | 0.495 |  |  |  |  |  |  |  |  |  | 
38 | NCI-H596 | 0.963 | 0.71 | 0.801 | 0.896 | 0.833 | 0.994 | 1.06 | 1.01 | 0.394 | 0.382 | 0.484 | 0.395 | 0.884
39 | NCI-H647 | 0.212 | 0.157 | 0.119 | 1.12 | 1.29 | 1.26 | 1.23 | 1.15 | 0.65 | 0.219 | 0.208 |  | 0.152
40 | NCI-H650 | 0.322 | 0.139 | 0.199 |  |  |  |  |  | 0.297 | 0.294 | 0.307 | 0.798 | 0.635
41 | NCI-H661 | 0.822 | 0.41 | 0.195 |  |  |  |  |  | 0.349 | 0.262 | 0.33 | 0.413 | 0.848
42 | NCI-H727 | 0.455 | 0.501 | 0.494 | 0.305 | 0.355 | 0.397 | 0.35 | 0.358 | 0.353 | 0.35 | 0.289 | 0.277 | 0.271
43 | NCI-H1299 |  |  |  | 1.04 | 1.09 | 1.07 | 1.01 | 1.03 | 0.563 | 0.256 | 0.0872 | 0.516 | 
44 | NCI-H1563 | 0.269 | 0.497 | 0.524 |  |  |  |  |  | 0.684 | 0.731 | 0.3 | 0.59 | 0.608
45 | NCI-H1623 | 0.312 | 0.279 | 0.239 |  |  |  |  |  |  |  |  |  | 0.412
46 | NCI-H1703 |  |  |  | 1.2 | 1.08 | 0.987 | 1.16 | 0.535 | 0.308 | 0.381 | 0.221 | 0.236 | 
47 | NCI-H2342 | 0.676 | 0.572 | 0.485 |  |  |  |  |  |  |  |  |  | 0.756
48 | SW 900 | 0.387 | 0.366 | 0.465 |  |  |  |  |  |  |  |  |  | 0.203
